Experiments:
NUP-MDSC = experiment: Global proteome expression profiling of compound-treated NUP-MDSC (TMT LC-MS/MS); assay type: cell-based, mouse; conditions: 72 h; for log2 FC ENT_300/DMSO: 300 nM
Protocol: After treatments, medium was removed, cells were washed twice with PBS, and the cell pellets were further subjected to proteomic sample preparation.
The cell pellet was reconstituted in 2% SDS in 50 mM Tris–HCl pH 7.5 and lysed by heating to 95 °C for 10 min. One microliter of 100% TFA was added to each sample to hydrolyze DNA, and the pH was subsequently adjusted to 8.5 with 3 M Tris solution. Disulfide bonds were reduced with 10 mM DTT for 45 min at 37 °C, followed by alkylation of cysteines with 55 mM CAA for 30 min at room temperature. Prior to tryptic digestion, the detergent was removed from lysates by SP3 cleanup on an Agilent BRAVO system (Agilent Technologies), following the protocol first described by Hughes et al. ([34]). Briefly, lysate containing 200 μg of protein was mixed with SP3 beads, and proteins were precipitated onto a 50:50 mixture of Sera-Mag Speed Bead types A and B (Thermo Fisher Scientific) in 58% acetonitrile. Beads were washed three times with 80% ethanol in water and once with acetonitrile. Tryptic digest was performed in 100 μl of digestion buffer (2 mM CaCl2 in 25 mM Hepes, pH 8.5) with a 1:50 enzyme-to-protein ratio. Bead-precipitated proteins were digested at 37 °C overnight. On the next day, the supernatant of each sample was transferred to a new well and vacuum dried.
Dried peptides were reconstituted in water and labeled with the respective TMT10plex-labeling reagent as described previously ([35]) with a protein to tandem mass tag (TMT) reagent ratio of 1:2. Labeled samples were pooled, vacuum dried, and reconstituted in 0.1% formic acid (FA) prior to desalting on SepPAC50 columns (waters corp.). Peptides were fractionated using a Dionex Ultra 3000 HPLC system with a Waters XBridge BEH130 C18 3.5 um 2.1 × 250 mm column as described previously ([36]). Ninety-six fractions were collected and pooled to 48. For the full proteome analysis, one fifth of each fraction was transferred to a new 96-well plate and both plates were vacuum dried. For the phosphopeptide analysis, dried peptides were reconstituted in 55 μl 0.1% TFA in 30% ACN, pooled from 48 to 12 fractions, and mixed with 70 μl priming buffer (0.1% TFA, 100% ACN). Phosphopeptides were enriched from each of the 12 fractions using Fe(III)-IMAC-NTA cartridges on the AssayMAP BRAVO (Agilent Technologies) platform as described previously ([36]). Phosphopeptides were eluted with 60 μl 1% ammonia, vacuum dried, and stored at −20 °C prior to LC-MS/MS analysis.
The Fusion Lumos was operated in data-dependent acquisition and positive ionization mode. Samples were measured employing a MS3 method. In brief, full scan MS1 spectra were recorded in the orbitrap (OT) from 360 to 1560 m/z at 60,000 resolution using an automatic gain control (AGC) target value of 4e5 charges and a maximum injection time (maxIT) of 50 ms. Iontrap-MS2 spectra for peptide identification were acquired using higher energy collision dissociation (HCD) fragmentation with 32% normalized collision energy (NCE), an isolation window of 0.6 m/z, and an AGC target value of 1.2e4 charges. To obtain quantitative information on TMT reporter ions, each peptide precursor was fragmented again as for MS2 analysis followed by synchronous selection of the up to eight most intense peptide fragments in the iontrap ([37]) and further fragmentation via HCD using a NCE of 55%. The MS3 scan was recorded in the OT at 50,000 resolution (scan range 100–1000 m/z, isolation window of 1.2 m/z, AGC of 1e5 charges, maxIT of 86 ms). The cycle time was 1.2 s, and the dynamic exclusion lasted for 50 s.
Peptide, protein, and phosphorylation site identification and quantification were performed with MaxQuant software (v. 1.6.3.3, https://www.maxquant.org/) with standard settings for reporter ion MS3 unless described otherwise ([39]). Isotope impurities of the TMT lot were specified to allow MaxQuant the automated correction of TMT intensities. […]

NUP-MDSC cell lysate [1] = molecular target: T1, NUP-MDSC cell lysate (Mus musculus, UniProt G5E8Z3); experiment: Chemoproteomic competition pulldown assay (iCor/iEnt affinity matrix), proteome-wide; assay type: binding; conditions: protein 2310050C09Rik (G5E8Z3)
T1 construct: endogenous in cells; host or cells: mouse NUP-MDSC (lysate)
From the text: (§1) Targets of the inhibitors were annotated manually.

NUP-MDSC cell lysate [2] = experiment: as above; assay type: binding, mouse; conditions: NUP-MDSC lysate; iCor and iEnt
From the text: as §1

NUP-MDSC cell lysate [3] = molecular target: T2, NUP-MDSC cell lysate (Mus musculus, UniProt Q8WUR0); experiment: as above; assay type: binding; conditions: protein 1600014C10Rik (Protein C19orf12 homolog)
T2 construct: endogenous in cells; host or cells: mouse NUP-MDSC (lysate)
T2 sequence (Q8WUR0 1-141): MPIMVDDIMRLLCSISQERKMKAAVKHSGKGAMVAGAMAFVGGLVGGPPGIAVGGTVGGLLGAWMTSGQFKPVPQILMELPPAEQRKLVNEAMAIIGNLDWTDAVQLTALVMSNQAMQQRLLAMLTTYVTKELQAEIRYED
From the text: as §1

[4] = system: HDAC1/2 and the CoREST complex; conditions: NUP-MDSC lysate; competition with iCor pulldown
Protocol: In vitro–differentiated NUP-MDSC were harvested, washed twice with PBS, and cell pellets were stored at −80 °C. For lysis, the pellets were slowly thawed at 20 °C and mixed with lysis buffer (0.8% Igepal, 50 mM Tris–HCl pH 7.5, 5% glycerol, 1.5 mM MgCl2, 150 mM NaCl, 1 mM Na3VO4, 25 mM NaF, 1 mM DTT, and supplemented with protease inhibitors (SigmaFast, Sigma) and phosphatase inhibitors (prepared in-house according to phosphatase inhibitor cocktail 1, 2, and 3 from Sigma-Aldrich)). Before usage, the cell lysates were cleared from debris by ultracentrifugation (52,000×g for 20 min at 4 °C); protein concentration was determined by Bradford assay. […]
Peptides were analyzed via LC-MS/MS on a Dionex Ultimate3000 nano HPLC coupled to an Orbitrap Fusion Lumos mass spectrometer (Thermo Fisher Scientific). […]
The mass spectrometer was operated in data-dependent mode, automatically switching between MS1 and MS2 spectra. […] Up to 12 peptide precursors were isolated (isolation width of 1.2 Th, maxIT of 75 ms, AGC value of 2e5), fragmented by HCD using 30% NCE, and analyzed in the OT at a resolution of 15,000. […]
Protein identification and quantification was performed using MaxQuant (v 1.6.1.0) by searching the LC-MS/MS data against all canonical protein sequences as annotated in the Swissprot reference database (v03.12.15, 20,193 entries, downloaded 22.03.2016) using the embedded search engine Andromeda. […]

T1 sequence (G5E8Z3 1-280): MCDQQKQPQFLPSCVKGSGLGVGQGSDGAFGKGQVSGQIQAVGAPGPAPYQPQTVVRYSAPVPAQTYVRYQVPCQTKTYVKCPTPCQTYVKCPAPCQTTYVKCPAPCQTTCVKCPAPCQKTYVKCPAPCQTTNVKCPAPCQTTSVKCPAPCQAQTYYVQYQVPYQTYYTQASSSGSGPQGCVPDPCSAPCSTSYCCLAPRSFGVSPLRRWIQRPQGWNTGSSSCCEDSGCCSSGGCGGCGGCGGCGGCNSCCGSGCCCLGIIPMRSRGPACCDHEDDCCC

Nc1ccccc1NC(=O)c1ccc(CNC(=O)OCc2cccnc2)cc1 [entinostat]
protein expression of Il1a, Il1b, and Il1rn (NUP-MDSC; 30 and 300 nM): dose-dependently upregulated
protein level of Cxcr3, Ccl9, and Ccr5 (NUP-MDSC; 30 and 300 nM, dose-dependent manner): increased
log2 FC ENT_300/DMSO (NUP-MDSC; protein Cask): -0.505
log2 FC ENT_300/DMSO (NUP-MDSC; protein Hsf1): -0.1449
log2 FC ENT_300/DMSO (NUP-MDSC; protein Inpp5j): 0.4672
log2 FC ENT_300/DMSO (NUP-MDSC; protein Magohb;Magoh): 0.03399
Intensity 3nM (NUP-MDSC cell lysate [1]; Entinostat 3nM): 4673000
LFQ intensity 3nM (NUP-MDSC cell lysate [1]; Entinostat 3nM): 0
Intensity 10nM (NUP-MDSC cell lysate [1]; Entinostat 10nM): 39076000
LFQ intensity 10nM (NUP-MDSC cell lysate [1]; Entinostat 10nM): 48940000
Intensity 30nM (NUP-MDSC cell lysate [1]; Entinostat 30nM): 0
LFQ intensity 30nM (NUP-MDSC cell lysate [1]; Entinostat 30nM): 0
Intensity 100nM (NUP-MDSC cell lysate [1]; Entinostat 100nM): 0
LFQ intensity 100nM (NUP-MDSC cell lysate [1]; Entinostat 100nM): 0
Intensity 300nM (NUP-MDSC cell lysate [1]; Entinostat 300nM): 63615000
LFQ intensity 300nM (NUP-MDSC cell lysate [1]; Entinostat 300nM): 92239000
Intensity 1000nM (NUP-MDSC cell lysate [1]; Entinostat 1000nM): 0
LFQ intensity 1000nM (NUP-MDSC cell lysate [1]; Entinostat 1000nM): 0
Intensity 3000nM (NUP-MDSC cell lysate [1]; Entinostat 3000nM): 17259000
LFQ intensity 3000nM (NUP-MDSC cell lysate [1]; Entinostat 3000nM): 18337000
Intensity 30000nM (NUP-MDSC cell lysate [1]; Entinostat 30000nM): 37204000
LFQ intensity 30000nM (NUP-MDSC cell lysate [1]; Entinostat 30000nM): 38240000
additional targets identified (NUP-MDSC cell lysate [2]): No additional targets
Intensity 3nM (NUP-MDSC cell lysate [3]; Entinostat 3nM): 20883000
LFQ intensity 3nM (NUP-MDSC cell lysate [3]; Entinostat 3nM): 42321000
Intensity 10nM (NUP-MDSC cell lysate [3]; Entinostat 10nM): 34795000
LFQ intensity 10nM (NUP-MDSC cell lysate [3]; Entinostat 10nM): 40587000
Intensity 30nM (NUP-MDSC cell lysate [3]; Entinostat 30nM): 27408000
LFQ intensity 30nM (NUP-MDSC cell lysate [3]; Entinostat 30nM): 39634000
Intensity 100nM (NUP-MDSC cell lysate [3]; Entinostat 100nM): 29285000
LFQ intensity 100nM (NUP-MDSC cell lysate [3]; Entinostat 100nM): 35458000
Intensity 300nM (NUP-MDSC cell lysate [3]; Entinostat 300nM): 23203000
LFQ intensity 300nM (NUP-MDSC cell lysate [3]; Entinostat 300nM): 36056000
Intensity 1000nM (NUP-MDSC cell lysate [3]; Entinostat 1000nM): 28303000
LFQ intensity 1000nM (NUP-MDSC cell lysate [3]; Entinostat 1000nM): 37293000
Intensity 3000nM (NUP-MDSC cell lysate [3]; Entinostat 3000nM): 35943000
LFQ intensity 3000nM (NUP-MDSC cell lysate [3]; Entinostat 3000nM): 42228000
Intensity 30000nM (NUP-MDSC cell lysate [3]; Entinostat 30000nM): 27116000
LFQ intensity 30000nM (NUP-MDSC cell lysate [3]; Entinostat 30000nM): 26320000
target affinity [4]: high affinities
